Data from PubChem BioAssay (NCI).
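Cultured in 96-well plates, cells were exposed to test compound for 48 hours across five concentrations. Abbreviation: GI50, concentration required for 50% inhibition of growth. TGI: total growth inhibition.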

Assays:
Assay in all cases: inhibition of tumour cell growth, NCI panel, 48 h
[1] = test system: OVCAR-5 ovarian
[2] = test system: ACHN renal
[3] = test system: SNB-19 CNS
[4] = test system: MALME-3M melanoma
[5] = test system: CCRF-CEM leukemia
[6] = test system: MDA-MB-231 breast
[7] = test system: SK-OV-3 ovarian
[8] = test system: U251 CNS
[9] = test system: NCI-H226 lung
[10] = test system: COLO 205 colon
[11] = test system: DU-145 prostate
[12] = test system: SK-MEL-5 melanoma
[13] = test system: PC-3 prostate
[14] = test system: UO-31 renal
[15] = test system: TK-10 renal
[16] = test system: UACC-62 melanoma
[17] = test system: MCF7 breast
[18] = test system: RXF 393 renal
[19] = test system: HOP-92 NSCLC
[20] = test system: CAKI-1 renal
[21] = test system: SK-MEL-28 melanoma
[22] = test system: HOP-62 NSCLC
[23] = test system: SF-295 CNS
[24] = test system: HL-60(TB) leukemia
[25] = test system: NCI-H460 lung
[26] = test system: SK-MEL-2 melanoma
[27] = test system: KM12 colon
[28] = test system: OVCAR-8 ovarian
[29] = test system: NCI-H23 lung
[30] = test system: UACC-257 melanoma
[31] = test system: BT-549 breast
[32] = test system: IGROV1 ovarian
[33] = test system: SNB-75 CNS
[34] = test system: HS 578T breast
[35] = test system: NCI/ADR-RES ovarian
[36] = test system: SN12C renal
[37] = test system: LOX IMVI melanoma
[38] = test system: 786-0 renal
[39] = test system: HCT-15 colon
[40] = test system: MOLT-4 leukemia
[41] = test system: NCI-H522 lung
[42] = test system: A549 NSCLC
[43] = test system: SF-539 CNS
[44] = test system: SR leukemia
[45] = test system: HCT-116 colon
[46] = test system: SW-620 colon
[47] = test system: HCC-2998 colon
[48] = test system: T-47D breast
[49] = test system: M14 melanoma
[50] = test system: K-562 leukemia
[51] = test system: HT29 colon
[52] = test system: MDA-MB-435
[53] = test system: RPMI-8226 leukemia
[54] = test system: A498 renal
[55] = test system: OVCAR-4 ovarian
[56] = test system: SF-268 CNS
[57] = test system: OVCAR-3 ovarian

For `C=CC(=O)N1CC2(CCC(n3nc(-c4ccc(Oc5ccccc5)cc4)c4c(N)ncnc43)CC2)C1`, the GI50 [1] was 0.13 µM, the TGI [1] was 16.6 µM and the GI50 [2] was < 0.0123 µM. It also gave a TGI [2] of 0.362 µM, a GI50 [3] of 1.23 µM and a TGI [3] of 15.7 µM. For the same molecule, the GI50 [4] was 1.5 µM, the TGI [4] was 9.21 µM and the GI50 [5] was 3.65 µM. It also gave a TGI [5] of 21.9 µM, a GI50 [6] of 0.281 µM and a TGI [6] of 11.1 µM. For the same molecule, the GI50 [7] was 0.0525 µM, the TGI [7] was 0.787 µM and the GI50 [8] was 0.617 µM. The TGI [8] was 12.7 µM, the GI50 [9] was 0.861 µM and the TGI [9] was 15 µM. The GI50 [10] was 0.143 µM, the TGI [10] was 1.28 µM and the GI50 [11] was 0.368 µM. It also gave a TGI [11] of 2.21 µM, a GI50 [12] of 1.55 µM and a TGI [12] of 2.97 µM. The GI50 [13] was 1.09 µM, the TGI [13] was 9.2 µM and the GI50 [14] was 0.0468 µM. It also gave a TGI [14] of 1.66 µM, a GI50 [15] of 0.0362 µM and a TGI [15] of 0.266 µM. It also gave a GI50 [16] of 1.02 µM, a TGI [16] of 4.85 µM and a GI50 [17] of 0.424 µM. The TGI [17] was 11.4 µM, the GI50 [18] was 0.0168 µM and the TGI [18] was 0.267 µM. The GI50 [19] was < 0.014 µM, the TGI [19] was 0.366 µM and the GI50 [20] was 0.0283 µM. It also gave a TGI [20] of 0.709 µM, a GI50 [21] of 2.45 µM and a TGI [21] of 14 µM. For the same molecule, the GI50 [22] was 0.0103 µM, the TGI [22] was 6.5 µM and the GI50 [23] was 2.3 µM. The TGI [23] was 15.7 µM, the GI50 [24] was 3.2 µM and the TGI [24] was 10 µM. The GI50 [25] was 3.43 µM, the TGI [25] was 16.1 µM and the GI50 [26] was 1.5 µM. It also gave a TGI [26] of 3.63 µM, a GI50 [27] of 3.02 µM and a TGI [27] of 10.8 µM. The GI50 [28] was 1.85 µM, the TGI [28] was 13.1 µM and the GI50 [29] was 4.39 µM. For the same molecule, the TGI [29] was 17.3 µM, the GI50 [30] was 1.46 µM and the TGI [30] was 8.62 µM. The GI50 [31] was 0.245 µM, the TGI [31] was 9.78 µM and the GI50 [32] was < 0.0125 µM. The TGI [32] was 0.462 µM, the GI50 [33] was < 0.0151 µM and the TGI [33] was 0.174 µM. For the same molecule, the GI50 [34] was 0.108 µM, the TGI [34] was 1.54 µM and the GI50 [35] was 1.74 µM. For the same molecule, the TGI [35] was 17.5 µM, the GI50 [36] was 0.179 µM and the TGI [36] was 10.6 µM. The GI50 [37] was < 0.0106 µM, the TGI [37] was 0.847 µM and the GI50 [38] was 0.0304 µM. The TGI [38] was 1.63 µM, the GI50 [39] was 0.2 µM and the TGI [39] was 12.1 µM. The GI50 [40] was 1.93 µM, the TGI [40] was 6.39 µM and the GI50 [41] was 0.0676 µM. It also gave a TGI [41] of 0.995 µM, a GI50 [42] of 1.46 µM and a TGI [42] of 9.41 µM. It also gave a GI50 [43] of 0.174 µM, a TGI [43] of 1.91 µM and a GI50 [44] of 3.35 µM. The TGI [44] was 18.9 µM, the GI50 [45] was 0.0407 µM and the TGI [45] was 1.88 µM. For the same molecule, the GI50 [46] was 3.98 µM, the TGI [46] was 21.7 µM and the GI50 [47] was 4.8 µM. For the same molecule, the TGI [47] was 19.6 µM, the GI50 [48] was 0.0197 µM and the TGI [48] was 5.89 µM. It also gave a GI50 [49] of 1.43 µM, a TGI [49] of 5.23 µM and a GI50 [50] of 0.698 µM. For the same molecule, the TGI [50] was 25.6 µM, the GI50 [51] was < 0.0175 µM and the TGI [51] was 1.34 µM. It also gave a GI50 [52] of 1.74 µM, a TGI [52] of 7.13 µM and a GI50 [53] of 1.51 µM. The TGI [53] was 5.8 µM, the GI50 [54] was < 0.0223 µM and the GI50 [55] was 1.46 µM. It also gave a TGI [55] of 14.2 µM, a GI50 [56] of 0.255 µM and a TGI [56] of 6.04 µM. The GI50 [57] was 0.641 µM and the TGI [57] was 9.61 µM.
